# Data as given in PMC13267291, “In vivo functional profiling and structural characterization of the human GLP1R A316T variant” (Science Advances, 2026).
# Legend:
# [1] = system: SNAP/FLAG-hGLP1R^A316T versus ^WT; assay: GLP-1R ubiquitination assay; assay type: cell-based, rat; settings: 100 nM, 10 min; n = 5; Fig. 8K
# Protocol: INS-1 832/3 Glp1r-/- SNAP/FLAG-hGLP1RWT or A316T cells plated onto 6- cm dishes were stimulated ± 100 nM exendin-4 for 10 min, washed with PBS and osmotically lysed in lysis buffer (50 mM tris-HCl, pH 7.4, 150 mM NaCl, 1% Triton X-100, 1 mM EDTA) with 1% protease inhibitor (Roche) and 1% phosphatase inhibitor cocktail (Sigma-Aldrich) at 4°C. Cell lysates were centrifuged at 12,000 g and 4°C for 10 min prior to the addition of 40 μL anti- FLAG M2 beads (A2220, Sigma-Aldrich) and overnight rotating incubation at 4°C to increase FLAG-tag binding efficiency. Samples were then centrifuged at 5,000 g for 30 s, bead pellets washed 3x in 500 μL wash buffer (50 mM Tris-HCl, 150 mM NaCl, pH 7.4), and proteins eluted with 2x urea buffer at 37°C for 10 min before Western blot analysis with anti-ubiquitin antibody (1:1,000; sc-8017, Santa Cruz Biotechnology) and sheep anti-mouse HRP secondary (1:5,000; ab6808, Abcam) followed by stripping and reblotting with anti-SNAP antibody as above to assess immunoprecipitated receptor per sample. GLP-1R ubiquitination was calculated from ubiquitin over SNAP band intensity levels under the different conditions tested using Fiji.
# LC- MS/MS G LP-1R interactome analysis
# INS-1 832/3 Glp1r-/- SNAP/FLAG-hGLP1RWT or A316T cells were plated onto 6-cm dishes and stimulated with vehicle or 100 nM GLP-1RA for 5 min as previously described (63). […]
# [2] = system: hGLP1R^A316T/+ versus hGLP1R^+/+ mice; assay: IPGTT after GLP-1RA, HFHS-fed heterozygous mice; assay type: in vivo, mouse; settings: HFHS diet; 2 nmol/kg; n = 7; fig. S5G,H
# Protocol: All animal procedures were approved by the British Home Office under the UK animals (Scientific Procedures) Act 1986 (Project License number PP7151519 to A. Martinez-Sanchez, Imperial College London, UK) and from the local ethical committee (Animal Welfare and Ethics Review Board) at the Central Biological Services unit of Imperial College London. Animals were housed in groups of up to four adult mice in individually ventilated cages under controlled conditions at 21° to 23°C with 12-hour:12-hour light-to-dark cycles (lights on at 07:00). Ad libitum access to water and feed was provided unless otherwise stated. Lean mice were fed a standard chow diet [RM1 (E); Special Diet Services]. For HFHS diet studies, animals were put on a 58 kcal % fat and sucrose diet (D12331, Research Diets Inc.) ad libitum for 10 to 14 weeks before experiments.
# To examine acute and prolonged glycemic responses to GLP-1RAs, animals were fasted for 2 hours, starting at 8 a.m. on the morning of the experiments, before IPGTTs. GLP-1RAs were then coadministered at the indicated concentrations with 20% (w/v) D-glucose via intraperitoneal injection at weight-adjusted volumes. Baseline glucose readings were taken via tail venipuncture, and subsequent readings were taken at various time points after glucose ± GLP-1RA administration as for the OGTTs (0-hour acute IPGTTs). […]
substance,measurement,setting,value
exendin-4,Effect of agonist stimulation on WT GLP-1R ubiquitination level,[1],did not affect
same,Effect of agonist stimulation on ubiquitination of the A316T receptor,[1],significantly increased
same,"Desensitization 6 hours postagonist, A316T/+ versus +/+",[2],significantly increased desensitization
